We go through 20 compounds from BindingDB's records for patent WO2025051920 (Sanofi-Aventis Deutschland, 2025).

Each structure is given as a SMILES string. Bridge positions count the residues as written; N and C are the ends. Square brackets hold non-standard residues; d marks the D form. Peptide text beside a SMILES is read from it. 2Nal = N[C@@H](Cc1ccc2ccccc2c1)C(=O)O; dOrn = NCCC[C@@H](N)C(=O)O; Aib = CC(C)(N)C(=O)O

For the test, the target named is Interleukin-23 subunit alpha/receptor (UniProt Q5VWK5). Put plainly: ELISA assay for specific human IL-23R inhibitors. As to the method:
A 384-well plate was coated with 50 µl/well of human IL-23 at a final concentration of […] and incubated overnight at 4°C. The wells were washed 3 times with […] wash buffer and blocked with […] blocking buffer for 60 minutes at room temperature and washed again. 20 µl of serially diluted test peptides was added to each well and subsequently 20 µl of recombinant human IL-23R-Fc chimera at final concentration of […]. The plate was incubated for 60 minutes at room temperature. After the wells were washed, bound IL-23R-Fc was detected with goat anti-hu- IgG 1 -HRP antibody. Signals were visualized with QuantaBlu Fluorogenic Peroxidase Substrate.

Chain of Interleukin-23 subunit alpha/receptor (Q9NPF7 whole entry): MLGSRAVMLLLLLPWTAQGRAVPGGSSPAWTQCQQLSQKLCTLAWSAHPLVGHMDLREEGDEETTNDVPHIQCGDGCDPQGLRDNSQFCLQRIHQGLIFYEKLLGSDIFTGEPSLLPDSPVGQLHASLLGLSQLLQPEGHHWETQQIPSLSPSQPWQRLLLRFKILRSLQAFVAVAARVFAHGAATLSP
Chain of Interleukin-23 subunit alpha/receptor (Q5VWK5 whole entry): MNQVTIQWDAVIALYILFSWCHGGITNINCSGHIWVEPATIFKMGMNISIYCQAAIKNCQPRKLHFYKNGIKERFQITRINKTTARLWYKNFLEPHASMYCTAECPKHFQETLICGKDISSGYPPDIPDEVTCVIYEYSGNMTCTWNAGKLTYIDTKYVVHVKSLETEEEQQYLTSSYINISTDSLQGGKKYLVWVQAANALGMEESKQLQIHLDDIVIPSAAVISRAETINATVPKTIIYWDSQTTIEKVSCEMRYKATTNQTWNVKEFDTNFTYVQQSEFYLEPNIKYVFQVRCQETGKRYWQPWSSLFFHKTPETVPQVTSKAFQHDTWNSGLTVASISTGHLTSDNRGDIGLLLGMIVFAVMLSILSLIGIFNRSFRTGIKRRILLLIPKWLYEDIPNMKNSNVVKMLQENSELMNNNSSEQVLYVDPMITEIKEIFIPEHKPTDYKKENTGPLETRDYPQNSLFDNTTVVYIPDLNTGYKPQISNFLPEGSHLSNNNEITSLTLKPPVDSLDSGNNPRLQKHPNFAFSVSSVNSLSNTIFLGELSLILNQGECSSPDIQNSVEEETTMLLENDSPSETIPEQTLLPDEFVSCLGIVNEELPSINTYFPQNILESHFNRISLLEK

Take `COc1ccc(C[C@@H]2NC(=O)[C@H](CC(C)C)NC(=O)[C@H](CCC(N)=O)NC(=O)[C@H](Cc3c[nH]c4ccccc34)NC(=O)[C@H]([C@@H](C)O)NC(=O)[C@H](CC(N)=O)NC(=O)[C@H](NC(C)=O)CCCCNC(=O)C[C@@H](C(=O)N[C@@H](CC(N)=O)C(=O)N[C@@H](CC(N)=O)C(=O)O)NC(=O)C(C)(C)NC(=O)[C@H](Cc3ccc4ccccc4c3)NC2=O)cc1` [WO2025051920, Example 1]: the IC50 (usually the concentration at which inhibition is half-maximal) came to 0.63 nM.
Take `COc1ccc(C[C@@H]2NC(=O)[C@H](C)NC(=O)[C@H](CCC(N)=O)NC(=O)[C@H](Cc3c[nH]c4ccccc34)NC(=O)[C@H]([C@@H](C)O)NC(=O)[C@H](CC(N)=O)NC(=O)[C@H](NC(C)=O)CCCCNC(=O)C[C@@H](C(=O)N[C@@H](CC(N)=O)C(=O)N[C@@H](CC(N)=O)C(=O)O)NC(=O)C(C)(C)NC(=O)[C@H](Cc3ccc4ccccc4c3)NC2=O)cc1` [WO2025051920, Example 2]: the half-inhibitory concentration (IC50) is 0.69 nM. The IC50 values of the last two compounds are within 1.5-fold of each other.
Consider `CC(=O)N[C@@H]1CCCCNC(=O)C[C@@H](C(=O)N[C@@H](CC(N)=O)C(=O)N[C@@H](CC(N)=O)C(=O)O)NC(=O)C(C)(C)NC(=O)[C@H](Cc2ccc3ccccc3c2)NC(=O)[C@H](Cc2ccc(O)cc2)NC(=O)[C@H](CCCNC(=N)N)NC(=O)[C@H](CCC(N)=O)NC(=O)[C@H](Cc2c[nH]c3ccccc23)NC(=O)[C@H]([C@@H](C)O)NC(=O)[C@H](CC(N)=O)NC1=O` [WO2025051920, Example 4], for which the midpoint of inhibition, the IC50, lay at 1.59 nM.
The result for `COc1ccc(C[C@@H]2NC(=O)[C@H](CCCNC(=N)N)NC(=O)[C@H](CCC(N)=O)NC(=O)[C@H](Cc3c[nH]c4ccccc34)NC(=O)[C@H]([C@@H](C)O)NC(=O)[C@H](CC(N)=O)NC(=O)[C@@H](NC(C)=O)CC(=O)NCCCC(C(=O)N[C@@H](CC(N)=O)C(=O)N[C@@H](CC(N)=O)C(=O)O)NC(=O)C(C)(C)NC(=O)[C@H](Cc3ccc4ccccc4c3)NC2=O)cc1` (stereo not given in full) [WO2025051920, Example 6] reads 1.96 nM.
`COc1ccc(C[C@@H]2NC(=O)[C@H](CC(C)C)NC(=O)[C@H](CCC(N)=O)NC(=O)[C@H](Cc3c[nH]c4ccccc34)NC(=O)[C@H]([C@@H](C)O)NC(=O)[C@H](CC(N)=O)NC(=O)[C@H](NC(C)=O)CCCCNC(=O)C[C@@H](C(=O)N[C@@H](CC(N)=O)C(=O)N[C@@H](CC(N)=O)C(=O)O)NC(=O)C(C)(C)NC(=O)[C@H](Cc3cccc4ccccc34)NC2=O)cc1` [WO2025051920, Example 7] had an IC50 of 2.47 nM.
Regarding `COc1ccc(C[C@@H]2NC(=O)[C@H](C)NC(=O)[C@H](CCC(N)=O)NC(=O)[C@H](Cc3c[nH]c4ccccc34)NC(=O)[C@H]([C@@H](C)O)NC(=O)[C@H](CC(N)=O)NC(=O)[C@H](NC(C)=O)CCCCNC(=O)C[C@@H](C(=O)N[C@@H](CC(N)=O)C(=O)N[C@@H](CC(N)=O)C(=O)O)NC(=O)C(C)(C)NC(=O)[C@H](Cc3cccc4ccccc34)NC2=O)cc1` [WO2025051920, Example 8], the IC50 is 2.74 nM.
`COc1ccc(C[C@@H]2NC(=O)[C@H](CCCNC(=N)N)NC(=O)[C@H](CCC(N)=O)NC(=O)[C@H](Cc3cn(C)c4ccccc34)NC(=O)[C@H]([C@@H](C)O)NC(=O)[C@H](CC(N)=O)NC(=O)[C@H](NC(C)=O)CCCCNC(=O)C[C@@H](C(=O)N[C@@H](CC(N)=O)C(=O)N[C@@H](CC(N)=O)C(=O)O)NC(=O)[C@H](CCCCNC(C)=O)NC(=O)[C@H](Cc3ccc4ccccc4c3)NC2=O)cc1` [WO2025051920, Example 10] yielded a concentration for half-maximal inhibition (IC50) of 3.6 nM.
The result for `COc1ccc(C[C@@H]2NC(=O)[C@H](CCCNC(=N)N)NC(=O)[C@H](CCC(N)=O)NC(=O)[C@H](Cc3c[nH]c4ccccc34)NC(=O)[C@H]([C@@H](C)O)NC(=O)[C@H](CC(N)=O)NC(=O)[C@H](NC(C)=O)CC(=O)NCCCC[C@@H](C(=O)N[C@@H](CC(N)=O)C(=O)N[C@@H](CC(N)=O)C(=O)O)NC(=O)C(C)(C)NC(=O)[C@H](Cc3cccc4ccccc34)NC2=O)cc1` [WO2025051920, Example 11] reads 18.9 nM; that for `COc1ccc(C[C@@H]2NC(=O)[C@H](CCCNC(=N)N)NC(=O)[C@H](CCC(N)=O)NC(=O)[C@H](Cc3c[nH]c4ccccc34)NC(=O)[C@H]([C@@H](C)O)NC(=O)[C@H](CC(N)=O)NC(=O)[C@H](NC(C)=O)CC(=O)NCCCC[C@@H](C(=O)N[C@@H](CC(N)=O)C(=O)N[C@@H](CC(N)=O)C(=O)O)NC(=O)C(C)(C)NC(=O)[C@H](Cc3ccc4ccccc4c3)NC2=O)cc1` [WO2025051920, Example 12], 14.9 nM; that for `COc1ccc(C[C@@H]2NC(=O)[C@H](CCCNC(=N)N)NC(=O)[C@H](CCC(N)=O)NC(=O)[C@H](Cc3c[nH]c4ccccc34)NC(=O)[C@H]([C@@H](C)O)NC(=O)[C@H](CC(N)=O)NC(=O)[C@H](NC(C)=O)CC(=O)NCCC[C@@H](C(=O)N[C@@H](CC(N)=O)C(=O)N[C@@H](CC(N)=O)C(=O)O)NC(=O)C(C)(C)NC(=O)[C@H](Cc3ccc4ccccc4c3)NC2=O)cc1` [WO2025051920, Example 13], 6.24 nM.
The result for `CC(=O)N[C@@H]1CCCCNC(=O)C[C@@H](C(=O)N[C@@H](CC(N)=O)C(=O)N[C@@H](CC(N)=O)C(=O)O)NC(=O)C(C)(C)NC(=O)[C@H](Cc2cccc3ccccc23)NC(=O)[C@H](Cc2ccc(O)cc2)NC(=O)[C@H](CCCNC(=N)N)NC(=O)[C@H](CCC(N)=O)NC(=O)[C@H](Cc2c[nH]c3ccccc23)NC(=O)[C@H]([C@@H](C)O)NC(=O)[C@H](CC(N)=O)NC1=O` [WO2025051920, Example 14] reads 5.42 nM; that for `COc1ccc(C[C@@H]2NC(=O)[C@H](CCCNC(=N)N)NC(=O)[C@H](CCC(N)=O)NC(=O)[C@H](Cc3c[nH]c4ccccc34)NC(=O)[C@H]([C@@H](C)O)NC(=O)[C@H](CC(N)=O)NC(=O)[C@H](NC(C)=O)CCCCNC(=O)C[C@@H](C(=O)N[C@@H](CC(N)=O)C(=O)N[C@@H](CC(N)=O)C(=O)O)NC(=O)[C@H](CCCCNC(C)=O)NC(=O)[C@H](Cc3cccc4ccccc34)NC2=O)cc1` [WO2025051920, Example 17], 7.87 nM.
The compound `COc1ccc(C[C@@H]2NC(=O)[C@H](CCCNC(=N)N)NC(=O)[C@H](CCC(N)=O)NC(=O)[C@H](Cc3c[nH]c4ccccc34)NC(=O)[C@H]([C@@H](C)O)NC(=O)[C@H](CC(N)=O)NC(=O)[C@H](NC(C)=O)CCCCNC(=O)C[C@@H](C(=O)N[C@@H](CC(N)=O)C(=O)N[C@@H](CC(N)=O)C(=O)O)NC(=O)[C@H](CCCNC(N)=O)NC(=O)[C@H](Cc3cccc4ccccc34)NC2=O)cc1` [WO2025051920, Example 18] showed a half-inhibitory concentration (IC50) of 11.7 nM.
For `COc1ccc(C[C@@H]2NC(=O)[C@H](CCCNC(=N)N)NC(=O)[C@H](CCC(N)=O)NC(=O)[C@H](Cc3c[nH]c4ccccc34)NC(=O)[C@H]([C@@H](C)O)NC(=O)[C@H](CC(N)=O)NC(=O)[C@H](NC(C)=O)CCCCNC(=O)C[C@@H](C(=O)N[C@@H](CC(N)=O)C(=O)N[C@@H](CC(N)=O)C(=O)O)NC(=O)[C@H](CCC(N)=O)NC(=O)[C@H](Cc3cccc4ccccc34)NC2=O)cc1` [WO2025051920, Example 19] the value was 15.6 nM; for `COc1ccc(C[C@@H]2NC(=O)[C@H](C(C)C)NC(=O)[C@H](CCC(N)=O)NC(=O)[C@H](Cc3c[nH]c4ccccc34)NC(=O)[C@H]([C@@H](C)O)NC(=O)[C@H](CC(N)=O)NC(=O)[C@H](NC(C)=O)CCCCNC(=O)C[C@@H](C(=O)N[C@@H](CC(N)=O)C(=O)N[C@@H](CC(N)=O)C(=O)O)NC(=O)C(C)(C)NC(=O)[C@H](Cc3cccc4ccccc34)NC2=O)cc1` [WO2025051920, Example 20], 15.9 nM.
Compound `COc1ccc(C[C@@H]2NC(=O)C(C)(C)NC(=O)[C@H](CCC(N)=O)NC(=O)[C@H](Cc3c[nH]c4ccccc34)NC(=O)[C@H]([C@@H](C)O)NC(=O)[C@H](CC(N)=O)NC(=O)[C@H](NC(C)=O)CCCCNC(=O)C[C@@H](C(=O)N[C@@H](CC(N)=O)C(=O)N[C@@H](CC(N)=O)C(=O)O)NC(=O)C(C)(C)NC(=O)[C@H](Cc3cccc4ccccc34)NC2=O)cc1` [WO2025051920, Example 21] gave an IC50 of 16.9 nM.
On to `COc1ccc(C[C@@H]2NC(=O)[C@H](CCCNC(=N)N)NC(=O)[C@H](CCC(N)=O)NC(=O)[C@H](Cc3c[nH]c4ccccc34)NC(=O)[C@H]([C@@H](C)O)NC(=O)[C@H](CC(N)=O)NC(=O)[C@H](NC(C)=O)CCCNC(=O)CC[C@@H](C(=O)N[C@@H](CC(N)=O)C(=O)N[C@@H](CC(N)=O)C(=O)O)NC(=O)C(C)(C)NC(=O)[C@H](Cc3cccc4ccccc34)NC2=O)cc1` [WO2025051920, Example 22], for which the concentration for half-maximal inhibition (IC50) is 48.4 nM.
For the compound `COc1ccc(C[C@@H]2NC(=O)[C@H](CCCNC(=N)N)NC(=O)[C@H](CCC(N)=O)NC(=O)[C@H](Cc3cn(C)c4ccccc34)NC(=O)[C@H]([C@@H](C)O)NC(=O)[C@H](CC(N)=O)NC(=O)[C@H](NC(C)=O)CCCCNC(=O)C[C@@H](C(=O)N[C@@H](CC(N)=O)C(=O)N[C@@H](CC(N)=O)C(=O)O)NC(=O)[C@@H](Cc3cscn3)NC(=O)[C@H](Cc3ccc4ccccc4c3)NC2=O)cc1` [WO2025051920, Example 25], the IC50 stood at 9.61 nM.
The result for `COc1ccc(C[C@@H]2NC(=O)[C@H](CCCNC(=N)N)NC(=O)[C@H](CCC(N)=O)NC(=O)[C@H](Cc3c[nH]c4ccccc34)NC(=O)[C@H]([C@@H](C)O)NC(=O)[C@H](CC(N)=O)NC(=O)[C@H](NC(C)=O)CCCNC(=O)C[C@@H](C(=O)N[C@@H](CC(N)=O)C(=O)N[C@@H](CC(N)=O)C(N)=O)NC(=O)C(C)(C)NC(=O)[C@H](Cc3ccc4ccccc4c3)NC2=O)cc1` [WO2025051920, Example 27] (Ac-[dOrn]NTWQRY(Me)[2Nal][Aib]DNN-NH2; lactam 1-10) reads 19.7 nM; that for `COc1ccc(C[C@@H]2NC(=O)[C@H](CCCNC(=N)N)NC(=O)[C@H](CCC(N)=O)NC(=O)[C@H](Cc3c[nH]c4ccccc34)NC(=O)[C@H]([C@@H](C)O)NC(=O)[C@H](CC(N)=O)NC(=O)[C@H](NC(C)=O)CCCCNC(=O)C[C@@H](C(=O)N[C@@H](CC(N)=O)C(=O)N[C@@H](CC(N)=O)C(=O)O)NC(=O)[C@H](CCCCN)NC(=O)[C@H](Cc3ccc4ccccc4c3)NC2=O)cc1` [WO2025051920, Example 28], 9.03 nM.
